Source: PMC11969024, “Development of chemokine network inhibitors using combinatorial saturation mutagenesis” (Communications Biology, 2025)

Test system: panel of 22 biotinylated chemokines
Test: Saturation (NNK) mutagenesis phage-display selection against biotinylated chemokines, enrichment by NGS
Format: binding, human
Conditions: two-sided Dunnett's test; for log2E compared to parental HD2, CXnC chemokines: 7 CXnC chemokines
Excerpt: 81-mer mutant oligonucleotides replacing NNK at each of the 16 peptide encoding residues were designed with the sequence arms 5’-[…], and […]-3’ at respective ends to enable amplification and cloning. Oligonucleotides (Genscript) were individually amplified and cloned into plasmid prSTOP4Nsi (described in[37]). prSTOP4Nsi was amplified using primers (Sigma): […]
Oligonucleotides were amplified using primers (Sigma): oligo_fwd: 5’-[…] and oligo_rev2: 5’-[…]. The PCR products were cloned into prSTOP4Nsi plasmid using NEB Builder HiFi Assembly (E5520, NEB) following instructions of the manufacturer. The vector pool was used to transform electrocompetent ElectroMAX™ DH5α-E™ cells (11319019, Invitrogen). Plasmid DNA was harvested by MaxiPrep (GeneJet Plasmid Maxiprep Kit (K0491, Thermo Scientific)). DNA was transformed into SS320 phage display electrocompetent cells (60512, Lucigen), following the manufacturer’s protocol. Following electroporation, cells were resuspended in 950 μL recovery media and transferred to 50 mL Falcon tubes. 100 μL 10^11 CFU/mL M13KO7 helper phage (N0315S, NEB) was added, and tubes shaken at 37 °C, 220 RPM, 1 h. 1 mL recovery culture was added to 2YT medium containing +50ug/mL carbenicillin (C9231, Sigma) and 25ug/mL kanamycin (K1377, Sigma), and grown overnight at 37 °C, 220 RPM. Phage was precipitated from culture supernatant by adding 22.5 mL of supernatant to 4.5 mL 20% PEG 8000 (89510, Sigma)/2.5 M NaCl (S9625, Sigma), incubating on ice for 30 min, and centrifuging at 12857 g, 4 °C, 10 min. The phage pellet was resuspended in 1 mL of PBT (PBS (P4417, Sigma), BSA (A7030, Sigma) 0.20%, Tween 20 (P1379, Sigma) 0.05%). Undissolved particulate matter was removed by centrifugation at 15871 g, 4 °C, 10 min. Glycerol (G5516, Sigma, 10% final (v/v) was added, and aliquots stored at −80 °C. A schematic of phage-display library construction is provided in Supplementary Fig. 12.
Phage display screening was performed as described. Experiments were performed in 96-well plates (Greiner Bio-One, 655180). Biotinylated chemokines or complement C5A (1μg, Almac or Protein Foundry) were incubated overnight at 4 °C with shaking at 250 RPM with 5μl streptavidin-coated magnetic beads (Dynabeads™ M-280 Streptavidin, Invitrogen, 11205D) in 100 μl PBS. Chemokine-bound beads were blocked for two hours in 200μl blocking buffer (PBS (phosphate-buffered saline, Sigma, P4417) + 0.2% BSA (bovine serum albumin, Sigma, A7030) with shaking at 250 RPM. Phage library (100μL, 10^10 CFU/mL) was bound to blocked beads for two hours at room temperature with shaking at 250 RPM. Beads were washed 15 times with PT buffer (PBS + 0.05% Tween 20 (Sigma, P1379)) to remove unbound phage then transferred to a fresh plate. Beads were incubated with 100μL phage-resistant Omnimax E. coli (Invitrogen, A10469) at optical density (OD600) 0.6-0.8, shaken at 37 °C for 30 min. Following this 10 µL M13K07 helper phage (NEB, N0315S, final concentration 10^10 CFU/mL) was added and shaken at 37 °C for 45 min. Cells were transferred to 1 mL 2YT medium (at pH7, MP Biomedicals™, 113012031, supplemented with 150 µg/mL carbenicillin (Sigma, C9231) and 75 µg/mL kanamycin (Sigma, K1377) in a 96-deep well block with V-bottom (Corning, CLS3960) and grown with overnight shaking at 37 °C, 200 RPM. Plates were either centrifuged at 2000g (4 °C, 30 min) or transferred to screw cap tubes and pelleted by centrifugation at 4000 g and 4 °C for 15 min. 540 µL of supernatant was transferred to a new 96-deep well plate, 60 µL of 10×PBT (10×PBS + 2% BSA + 0.5% Tween 20) added and stored at 4 °C for subsequent rounds. Phage display was carried out for three rounds. A schematic of phage-display library screening is provided in Supplementary Fig. 12.
We amplified inserts from the input library and from the selected phage population directly from phage by PCR using primers: 5’-[…] and 5’-[…] (Life Technologies). […]

| Sequence | log2E compared to parental HD2, CXnC chemokines | log2E compared to parental HD2, all chemokines (three selection rounds, 22 chemokines) |
| --- | --- | --- |
| EEDDWTAYAPLTCYFT [HD2Y5W, HD2 point mutant] | significant improvement | – |
| EEDDYWAYAPLTCYFT [HD2T6W, HD2 point mutant] | significant improvement | significantly improved |
